Assay results reported in patent publication US11505574B2, “Modulation of P53 for the treatment of cancer” (THE REGENTS OF THE UNIVERSITY OF CALIFORNIA, priority 2016, dated 2022).
Values belong to the substance of their own block, whether it stands above or below them. Bridges are numbered along the chain shown (N, C = ends). Where no end group is shown, it is not given here. [ ]: non-standard residue; d: D form.

Legend:
p53 [1] = assay: Western blot for p53 and downstream targets in RKO cells treated with peptides; format: cell-based, human
eIF4E (His-tagged) = eIF4E (His-tagged) (Homo sapiens, UniProt P06730); assay: Pulldown of His-tagged eIF4E by peptides bound to TentaGel resin; format: binding; conditions: linear and cyclized Pep8 on TentaGel resin; 2 μg purified eIF4E overnight (FIG. 36A)
eIF4E (His-tagged), sequence (P06730 whole entry): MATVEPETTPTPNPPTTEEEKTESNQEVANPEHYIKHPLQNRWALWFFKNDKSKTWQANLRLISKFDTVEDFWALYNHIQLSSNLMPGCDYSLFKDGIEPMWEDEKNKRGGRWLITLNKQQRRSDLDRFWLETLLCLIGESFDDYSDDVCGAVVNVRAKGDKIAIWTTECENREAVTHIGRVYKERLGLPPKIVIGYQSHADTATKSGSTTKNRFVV
Procedure: The peptides bound to Tentagel™ resin were incubated with His-eIF4E overnight and then washed extensively before being eluted with SDS-PAGE lysis buffer followed by Western blot assay for His-eIF4E. Lane #1: peptide-8 (SEQ ID NO:1); Lane #2: Cyc-8 peptide (SEQ ID NO:5); Lane #3: kAmi-8 peptide (SEQ ID NO:8); Lane #4: Ami-8 peptide (SEQ ID NO:7).
For the experiments shown in FIG. 36A, linear and cyclized versions of Pep8 (i.e., peptides having the amino acid sequences set forth in SEQ ID NOS:1, 5, 7, and 8) were synthesized and bound to TentaGel resin. Resin was washed 3× with 1× lysis buffer, and then incubated with 1× lysis buffer+0.3% BSA for 1 hour while rotating in a cold room. Next, resin was incubated with 1× lysis buffer+0.3% BSA+2 μg purified eIF4E (His-tagged) overnight. Next, resin was washed with 1× lysis buffer+0.3% BSA 3 times, followed by washing with 1× lysis buffer with no Triton X-100 three times. Finally, elution was performed with 1×SDS-loading buffer (70 μl) to load all onto a 12% SDS-PAGE gel for Western blot for His-tagged eIF4E.

MCF7 tumor spheres = assay: MCF7 tumor sphere assay; format: cell-based, human; conditions: MCF7 cells; 150 nM with 3 μg PEP1; 3.125 ng/mL doxorubicin; 7 days (FIG. 36C)
Procedure: For the experiments shown in FIG. 34E, MCF7 cells were plated at a density of 20,000 cells per well using 2 mL Mammocult media in 6-well ultra-low adherent plates. The following day, cells were treated with Pen-Ctrl or Pen-Pep8 at a concentration of 5 μM. Peptides were added to each well for 20 minutes followed by 6.25 ng/mL doxorubicin. Cells were grown for 7 days and then the number of tumor spheres that were larger than 50 μm in diameter were counted (i.e., 20 10× photos were randomly taken and tumor spheres counted from the digital photos). For the graph shown in FIG. 34F, statistical analysis was performed using the student's t-test (n=3; *p≤0.05).
For the experiments shown in FIG. 36C, MCF7 cells were plated at a density of 20,000 cells per well using 2 mL Mammocult media in 6-well ultra-low adherent plates. The following day, cells were treated with 150 nM Cyc-Ctrl or Cyc-Pep8 (SEQ ID NO:5). 150 nM Cyc-Ctr/Pep8 was incubated in 100 μL serum-free DMEM with 3 μg PEP1 for 25 minutes before being added to the cells. After 20 minutes, 3.125 ng/mL doxorubicin was added to the cells for 7 days. Cells were grown for 7 days and then tumor spheres were counted that were larger than 50 μm in diameter (i.e., 20 10× photos were randomly taken and tumor spheres were counted from the digital photos).

p53 [2] = assay: Western blot for p53 in MCF7 cells treated with oligonucleotides; format: cell-based, human; conditions: MCF7 cells (FIG. 29A)
mutant p53 (R248W) = assay: Western blot for mutant p53 in MIA-PaCa-2 cells treated with oligonucleotides; format: cell-based; conditions: p53 R248W (FIGS. 29A, 29B)
From the text: FIGS. 29A-29C show data illustrating the effects of oligonucleotides of the present invention with respect to wild type and mutant p53. […] Oligonucleotide sequences were as follows: M3, SEQ ID NO:14; 14A/G, SEQ ID NO:20; 14U/G, SEQ ID NO:49; 15A, SEQ ID NO:21; 6A/G, SEQ ID NO:45; 6U/G, SEQ ID NO:46; 10A/G, SEQ ID NO:47; 10 U/G, SEQ ID NO:48.
FIGS. 29A and 29B show the results of experiments exploring the effects of oligonucleotides of the present invention on wild type and mutant p53. Oligonucleotides M3, 14A/G, 15A, and 6U/G were used to treat MCF7 cells expressing wild type p53 and MIA-PaCa-2 cells expressing mutant p53 (R248W). […] The effect was limited to the 6U/G oligonucleotide. […] Oligonucleotide sequences were as follows: M3, SEQ ID NO:14; 14A/G, SEQ ID NO:20; 14U/G, SEQ ID NO:49; 15A, SEQ ID NO:21; 6A/G, SEQ ID NO:45; 6U/G, SEQ ID NO:46; 10A/G, SEQ ID NO:47; 10 U/G, SEQ ID NO:48.

p53 [3] = assay: Western blot for p53 and downstream targets in MCF7 cells treated with peptides; format: cell-based, human; conditions: MCF7 cells; 2.5 μM; 18 hours (FIG. 32C)
MCF7 cells = assay: MCF7 cell colony formation assay (peptides); format: cell-based, human; conditions: MCF7 cells; 5 μM; 6.25 ng/mL doxorubicin 48 hours (FIG. 34C)
Procedure: In order to test the effect of the RBM38 and eIF4E peptides on cancer cell colony formation, MCF7 cells were seeded in 6-well plates at a density of 1×10^3 cells per well. The following day, cells were treated with peptides. In order to form stable complexes with PEP1, 100 μl of serum-free DMEM was added to individual Eppendorf tubes. Control (SEQ ID NO:11), RBM38, and eIF4E peptides were added at a concentration of 375 nM and then 7.5 μg of PEP1 was added to each peptide (20:1). The complexes were incubated for 20 minutes at room temperature and then added dropwise to cells. Cell media was changed every three days until colonies were visible. The cells were fixed and then stained with crystal violet.
In order to test the effect of a combination treatment comprising peptides of the present invention and a chemotherapeutic agent on cancer cell colony formation, MCF7 cells were seeded in 6-well plates at a density of 1×10^3 cells per well. The following day, cells were treated with peptides. In order to form stable complexes with PEP1, 100 μL of serum-free DMEM was added to individual Eppendorf tubes. Control, RBM38, eIF4E, and peptide-8 peptides were added at a concentration of 375 nM and then 7.5 μg of PEP1 was added to each peptide (20:1). The complexes were incubated for 20 minutes at room temperature and then added dropwise to cells. 20 minutes after addition of peptide complexes, 3.125 ng/mL doxorubicin was added to the cells. Cell media was changed every three days until colonies were visible. The cells were fixed and then stained with crystal violet.
(§1) For the experiments shown in FIG. 34C, MCF7 cells were seeded on a 6-well plate at a seed density of 1×10^3 cells per well. The following day the cells were treated with 5 μM Pen-Ctrl or 5 μM Pen-Pep23. The following day, 6.25 ng/mL doxorubicin was added to the cells for 48 hours. Subsequently, the cell media was changed every 3 days until colonies were visible. The cells were fixed and stained with crystal violet.

RKO cells = assay: RKO cell colony formation assay (peptides); format: cell-based, human; conditions: 5 μM, 3.125 ng/mL doxorubicin 48 hours (FIG. 34D)
Procedure: as §1, with “34D, RKO” for “34C, MCF7”, “2×10^3” for “1×10^3”, “Pen-Ctrl, 5 μM Pen-Pep23,” for “Pen-Ctrl”, “Pen-Pep8.” for “Pen-Pep23.”, “3.125” for “6.25”

[4] = test system: tumor cell colony formation; assay: Tumor cell colony formation assay, cell line not stated (FIGS. 13C, 20D); format: cell-based; conditions: with and without doxorubicin 6.25 ng/mL; versus Pen-Ctrl (FIG. 20D)
[5] = test system: MIA-PaCa-2 pancreatic cancer cells; assay: MIA-PaCa-2 cell colony formation assay (peptides); format: cell-based, human; conditions: miaPaCa2 cells (mutant p53); 10 μM for 20 minutes then 0.25 ng/mL doxorubicin 18 hours (FIG. 37D)
From the text: […] […] After colonies formed they were fixed (i.e., using 7:1 MeOH:glacial acetic acid) and stained with crystal violet.

HaCaT cells = assay: HaCaT cell colony formation assay; format: cell-based; conditions: HaCaT cells (mutant p53); 10 μM for 20 minutes then 0.5 ng/mL doxorubicin 18 hours (FIG. 37D)
Procedure: For the experiments shown in FIG. 37D, HaCaT and MiaPaCa2 cells were grown in 6-well plates at 500 cells per well. The following day, 10 μM Pen-Ctrl (SEQ ID NO:10), Pen-Pep23 (SEQ ID NO:9), or Pen-Pep8 (SEQ ID NO:50) were added to the cells for 20 minutes followed by treatment with 0.5 ng/mL doxorubicin (for HaCaT cells) or 0.25 ng/mL doxorubicin (for miaPaCa2 cells) for 18 hours, then the media was changed to fresh DMEM. After colonies formed they were fixed (i.e., using 7:1 MeOH:glacial acetic acid) and stained with crystal violet.

binding of His-tagged eIF4E (pulldown, Western blot) (eIF4E (His-tagged)): bound the most eIF4E
Substance: cYPYAASPAc ([dC]YPYAASPA[dC]; disulfide 1-10 (inferred)) [Cyc-8, disulfide cyclic 10-mer of peptide-8]
p53 expression in combination with low-dose doxorubicin, cyclized versus linear peptide (p53 [1]; 6.25 ng/mL doxorubicin (FIG. 23E)): stronger effect in combination with low-dose doxorubicin
upregulation of p53 (Western blot), cyclized versus linear peptide (p53 [1]; 25 nM, 50 nM, 150 nM, 375 nM peptide (FIGS. 23A-23D)): stronger upregulation of p53
p53 expression, potency compared to other forms of Pep8 (Western blot) (p53 [1]; RKO cells, 25 nM, 50 nM, 150 nM or 375 nM with PEP1 at 20:1 molar ratio, 18 hours (FIG. 36B)): increased potency compared to other forms of Pep8, as shown by an increase of p53 with the addition of only 25 nM of the peptide
protein expression of p53 and downstream target MDM2 (Western blot) (p53 [1]; RKO cells, 375 nM peptide with 7.5 μg PEP1 (20:1), 18 hours (FIG. 1E)): enhanced the protein expression of p53 and the downstream target MDM2
protein expression of p53 and downstream target MDM2 (Western blot) (p53 [1]; RKO cells, 375 nM peptide with 7.5 μg PEP1 (20:1), 18 hours (FIG. 1E), listed as cyclized version of peptide-8): able to increase p53 protein expression
tumor spheres larger than 50 μm in diameter, sensitization to low-dose doxorubicin (MCF7 tumor spheres): sensitized MCF7 tumor spheres to low-dose doxorubicin treatment

Substance: UUUGUUUUUUGUUU (listed as RNA, chemistry not given here) [6U/G]
p53 expression in cells expressing wild type p53 (p53 [2]): unregulated p53 expression
p53 expression in cells expressing mutant p53 (mutant p53 (R248W)): downregulated expression

Substance: RQIKIWFQNRRMKWKKIGYQSHADTATKSGSTTKNRFVV [Pen-eIF4E, Penetratin fused to eIF4E peptide]
p53 expression (Western blot) (p53 [3]): induced p53 expression
sensitization to low-dose etoposide (p53 Western blot) (p53 [1]; RKO cells, 1.5 μM for 20 minutes then 0.125 ng/mL etoposide 18 hours (FIG. 34I)): also to low-dose etoposide
sensitization to low-dose doxorubicin (p53 Western blot) (p53 [1]; RKO cells, 1.5 μM for 20 minutes then 6.25 ng/mL doxorubicin 18 hours (FIG. 34I)): sensitized to low-dose doxorubicin
p53 expression (Western blot) (p53 [1]; RKO cells, 2.5 μM, 18 hours (FIG. 32B)): induced p53 expression
protein expression of p53 and downstream target MDM2 (Western blot) (p53 [1]; RKO cells, 5 μM Penetratin fusion, 18 hours (FIG. 1F)): enhanced the protein expression of p53 and the downstream target MDM2
colony formation, sensitization to low-dose doxorubicin (MCF7 cells): sensitized MCF7 and RKO cells to low-dose doxorubicin
colony formation, sensitization to low-dose doxorubicin (RKO cells): sensitized MCF7 and RKO cells to low-dose doxorubicin
cell colony formation, combination with doxorubicin [4]: striking synergistic effect
colony formation, sensitization to low-dose doxorubicin [5]: sensitized to low-dose doxorubicin
colony formation, sensitization to low-dose doxorubicin (HaCaT cells): sensitized to low-dose doxorubicin
